This note sets out measurements from publication PMC8348686, “The Pharmacological Profile of Second Generation Pyrovalerone Cathinones and Related Cathinone Derivative” (International Journal of Molecular Sciences, 2021).

In test [1] the target is T1, human dopamine (hDAT) uptake transporter (Homo sapiens, UniProt Q01959).
T1 construct: expressed in transfected cells; host or cells: HEK293
Briefly: Monoamine uptake inhibition, dopamine uptake in transfected HEK293 cells. Type of test: cell-based. How it is done:
The monoamine uptake transporter inhibition was examined in accordance with previously described methods by for each substance of interest.
Human embryonic kidney 293 (HEK293) cells (Invitrogen, Zug, Switzerland) stably transfected with the human norepinephrine (hNET), dopamine (hDAT), or serotonin (hSERT) uptake transporters were briefly cultured in Dulbecco’s modified Eagle’s medium (DMEM; Gibco, Life Technologies, Zug, Switzerland) containing 10% fetal bovine serum and 250 μg/mL geneticin (Gibco, Life Technologies, Zug, Switzerland). Next, the cells were detached at a confluency of 70−90% and resuspended in Krebs–Ringer Bicarbonate Buffer (Sigma-Aldrich, Buchs, Switzerland) at a concentration of 3 × 10^6 cells per ml. The uptake buffer was additionally supplemented with 0.2 mg/mL of ascorbic acid (Sigma–Aldrich, Buchs, Switzerland) for the [^3H]-DA uptake experiments.
In summary, using round bottom 96-well plates, 100 μL of cell suspension was incubated in 25 μL of buffer containing test substances, vehicle control (0.7% dimethyl sulfoxide, DMSO), or 10 μM of the respective monoamine uptake inhibitor, mainly fluoxetine (SERT), nisoxetine (NET), or mazindol (DAT) for 10 min at room temperature while on a rotary shaker at 450 rpm (Thermomixer Comfort, Eppendorf, Hamburg, Germany). Thereafter, the monoamine uptake transporter was initiated by the addition of 50 μL of each respective radiolabelled neurotransmitter ([^3H]-5-HT, [^3H]-DA or [^3H]-NE) dissolved in the uptake buffer to a final concentration of 5 nM for an additional 10 min. Then, 100 μL of cell suspension mixture was transferred to microcentrifuge tubes containing 50 μL of 3 M potassium hydroxide (KOH, Sigma–Aldrich, Buchs, Switzerland) and 200 μL silicon oil (1:1 mixture of silicon oil type AR20 and AR200; Sigma–Aldrich, Buchs, Switzerland). Immediately after, the tubes were centrifugated (3 min, 13200 rpm) to terminate the uptake reaction by allowing the cells to move through the silicon oil into the KOH, which then lysed the cells. Quickly after, the tubes were immediately frozen with liquid nitrogen. Afterwards, the frozen cell pellet was cut off into 6 mL scintillation vials (Perkin–Elmer, Schwerzenbach, Switzerland) filled with 500 μL of lysis buffer (5 mM EDTA, 0.05 M TRIS-HCl, 50 mM NaCl and 1% NP-40 in water). Directly after the vials were shaken for 1 h at 700 rpm and then each vial was filled with 3 mL of scintillation fluid (Ultimagold, Perkin–Elmer, Schwerzenbach, Switzerland). The uptake of the monoamines was measured using a liquid scintillation counter (Packard Tri-Carb Liquid Scintillation Counter 1900 TR).
The data were analysed using Prism software (version 8, GraphPad, San Diego, CA, USA) and was fitted by a nonlinear regression to variable-slope sigmoidal dose-response curve. The IC50 values were extracted in order to determine each drug’s inhibition potency at the various monoamine transporters.

For test [2], the target named is T2, h5-HT2B receptor (Homo sapiens, UniProt P41595).
T2 construct: expressed in transfected cells; host or cells: HEK293
The test is described as follows: Activation potency, FLIPR calcium assay in HEK293 cells. Format: cell-based. How it is done: Human embryonic kidney 293 (HEK293) cells were transfected with the human 5-HT2B receptors, seed into 96-well plates coated with poly-D-lysine at a concentration of 50,000 cell per 0.1 mL and then incubated for overnight at 37 °C in high glucose Dulbecco’s modified Eagle’s medium (DMEM; Invitrogen, Zug, Switzerland) containing 10% fetal calf serum (non-dialyzed, heat-inactivated), 250 mg/L Geneticin, and 10 mL/L PenStrep (Gibco). The medium was then removed using snap inversion and the cells were incubated with the 100 μL/well of calcium indicator Fluo-3-solution for 45 min at 31 °C (Molecular Probes, Eugene, OR, USA). Thereafter, the solution was removed using snap inversion and replaced with fresh calcium indicator Fluo-3-solution for an additional 45 min at 31 °C. The cells were then washed with HBSS and 20 mM HEPES using the EMBLA cell washer and immediately after incubated with 100 μL of assay buffer. The plate was then put into the FLIPR, turned online and the test drugs, diluted in the assay buffer were added to the corresponding wells (25 μL/well). The corresponding concentration vs. response curves were fitted using nonlinear regression and the EC50 values were calculated. The efficacy (maximal activity) was calculated relative to 5-HT activity, which was defined as 100%.

The target of test [3] is T3, h5-HT2C receptor (Homo sapiens, UniProt P28335).
T3 construct: expressed in transfected cells; host or cells: HEK293 cell preparations
T3 sequence (P28335 33-458): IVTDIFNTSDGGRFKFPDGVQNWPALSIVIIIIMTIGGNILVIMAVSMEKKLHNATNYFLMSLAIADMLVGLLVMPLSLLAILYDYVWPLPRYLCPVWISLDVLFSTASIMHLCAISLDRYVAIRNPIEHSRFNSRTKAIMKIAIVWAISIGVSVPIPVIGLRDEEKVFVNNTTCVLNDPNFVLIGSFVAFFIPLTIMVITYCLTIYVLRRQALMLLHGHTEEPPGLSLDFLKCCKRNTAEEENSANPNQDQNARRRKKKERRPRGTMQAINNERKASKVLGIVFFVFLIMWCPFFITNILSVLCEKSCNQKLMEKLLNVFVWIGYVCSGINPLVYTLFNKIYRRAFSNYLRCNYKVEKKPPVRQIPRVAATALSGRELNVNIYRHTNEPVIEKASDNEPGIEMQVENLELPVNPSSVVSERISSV
The test is described as follows: Radioligand binding, [3H]-mesulgerine. Here is the method:
(§1) The radioligand binding assays for the human 5-HT1A, 5-HT2A, and 5-HT2C receptors were examined as previously described by. In summary, the human embryonic kidney 293 (HEK293) cell preparations were stably transfected with the human 5-HT1A, 5-HT2A or 5-HT2C receptors and then incubated with their respective radiolabelled ligands at a concentration equal to the dissociation constant, Kd. The following radioligands were used for the 5-HT1A, 5-HT2A, and 5-HT2C receptors, respectively; 0.90 nM [^3H]8-hydroxy-2-(dipropylamino) tetralin (8-OH-DPAT), 0.40 nM [^3H]ketanserin, and 1.4 nM [^3H]mesulgerine. The radioligand displacement for each examined drug was determined. Specific binding of the radioligand to the target was calculated by subtracting the nonspecific binding (in the presence of the receptor’s competitor in excess) from the total observed binding. The following radioligand competitors were used for the 5-HT1A, 5-HT2A, and 5-HT2C receptors, respectively; 10 μM pindolol (5-HT1A receptor), 10 μM spiperone (5-HT2A receptor), and 10 μM mianserin (5-HT2C receptor).

In test [4] the target is h5-HT2A receptor (Homo sapiens, UniProt P28223). Briefly: Radioligand binding, [3H]-ketanserin. Also noted: expressed in transfected cells; host or cells: HEK293 cell preparations. How it is done:
as §1

Molecules are shown by their SMILES. Read-outs that look alike come from different tables or passages of the source.

T1 sequence (Q01959 whole entry): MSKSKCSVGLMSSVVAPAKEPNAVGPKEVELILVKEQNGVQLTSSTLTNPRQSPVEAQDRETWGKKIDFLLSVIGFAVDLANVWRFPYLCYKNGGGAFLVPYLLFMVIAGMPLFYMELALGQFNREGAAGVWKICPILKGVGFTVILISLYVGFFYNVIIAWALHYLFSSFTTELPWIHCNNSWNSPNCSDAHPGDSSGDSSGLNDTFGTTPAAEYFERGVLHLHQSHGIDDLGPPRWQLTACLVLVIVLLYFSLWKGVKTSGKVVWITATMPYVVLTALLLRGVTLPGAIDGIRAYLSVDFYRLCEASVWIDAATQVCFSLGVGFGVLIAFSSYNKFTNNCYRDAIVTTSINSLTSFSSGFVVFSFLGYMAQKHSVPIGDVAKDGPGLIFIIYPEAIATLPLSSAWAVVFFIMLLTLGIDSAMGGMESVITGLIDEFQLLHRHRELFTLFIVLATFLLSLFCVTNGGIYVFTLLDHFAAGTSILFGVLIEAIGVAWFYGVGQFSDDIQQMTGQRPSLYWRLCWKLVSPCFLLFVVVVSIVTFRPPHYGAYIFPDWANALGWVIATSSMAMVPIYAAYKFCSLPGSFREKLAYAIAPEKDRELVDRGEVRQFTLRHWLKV
T2 sequence (P41595 whole entry): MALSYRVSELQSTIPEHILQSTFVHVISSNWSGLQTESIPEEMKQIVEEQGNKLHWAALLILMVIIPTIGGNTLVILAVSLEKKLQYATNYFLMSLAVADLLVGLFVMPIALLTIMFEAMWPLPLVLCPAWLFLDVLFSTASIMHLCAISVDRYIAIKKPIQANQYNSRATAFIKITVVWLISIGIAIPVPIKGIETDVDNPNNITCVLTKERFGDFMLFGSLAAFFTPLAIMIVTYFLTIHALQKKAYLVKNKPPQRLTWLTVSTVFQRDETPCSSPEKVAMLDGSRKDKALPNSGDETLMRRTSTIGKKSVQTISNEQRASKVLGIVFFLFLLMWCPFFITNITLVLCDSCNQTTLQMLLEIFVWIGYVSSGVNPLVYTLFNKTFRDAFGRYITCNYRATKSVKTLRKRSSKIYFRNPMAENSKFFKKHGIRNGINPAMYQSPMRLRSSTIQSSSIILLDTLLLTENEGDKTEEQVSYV
h5-HT2A receptor, sequence (P28223 whole entry): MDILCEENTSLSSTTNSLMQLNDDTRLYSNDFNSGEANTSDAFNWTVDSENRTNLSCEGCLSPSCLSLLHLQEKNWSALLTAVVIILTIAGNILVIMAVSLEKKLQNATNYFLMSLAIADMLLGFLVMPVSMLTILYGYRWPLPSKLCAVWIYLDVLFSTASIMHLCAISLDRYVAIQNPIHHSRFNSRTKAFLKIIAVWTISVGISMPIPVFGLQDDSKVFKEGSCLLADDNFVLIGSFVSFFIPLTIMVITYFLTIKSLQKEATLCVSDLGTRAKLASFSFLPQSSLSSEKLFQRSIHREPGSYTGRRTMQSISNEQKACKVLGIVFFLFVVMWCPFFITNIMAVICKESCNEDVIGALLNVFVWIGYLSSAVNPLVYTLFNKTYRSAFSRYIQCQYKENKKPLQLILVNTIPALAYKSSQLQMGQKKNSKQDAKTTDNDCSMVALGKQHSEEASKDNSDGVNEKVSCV

Turning to `Cc1ccc(C(=O)C(C)N2CCCC2)cc1` (stereo not drawn) [4-MePPP, 4-methyl-α-pyrrolidinopropiophenone], it took 0.75 µM to reach half-maximal inhibition in test [1] (IC50). Further, the “fold lower potency at the DAT” value in test [1] (compared to pyrovalerone and MPHP) was 15 fold. Besides, the EC50 – broadly, the concentration needed to bring the measured effect to its halfway point – in test [2] was greater than 10 µM. Besides, the Ki (commonly a dissociation constant, usually derived from enzyme kinetics or from competition with a known ligand) in test [3] was greater than 5.1 µM; in test [4] it was 1.3 ± 0.4 µM.
For the compound `CCC(C(=O)c1ccc(F)cc1)N1CCCC1` (stereo not drawn) [4F-PBP, 4-fluoro-α-pyrrolidinobutiophenone], in test [1], half-maximal inhibition (IC50) required 0.5 µM. Further, the EC50 in test [2] was greater than 20 µM. Also, the Ki was greater than 15 µM in test [3] and greater than 13 µM in test [4].
`CNC(C)Cc1ccc2c(c1)OCO2` (stereo not drawn) [MDMA, 3,4-methylenedioxymethamphetamine, reference compound]: the IC50 (commonly the concentration at which inhibition is half-maximal) in test [1] was determined as 13 µM. In other words, the double-digit micromolar range.
For the compound `CCC(C(=O)c1ccc2c(c1)OCO2)N1CCCC1` (stereo not drawn) [MDPBP, 3,4-methylenedioxy-α-pyrrolidinobutiophenone], the IC50 in test [1] was 0.07 µM. Moreover, the EC50 in test [2] is greater than 20 µM. Further, the Ki in test [3] is greater than 15 µM; in test [4], greater than 13 µM.
For `CCCCC(C(=O)c1ccc2c(c1)OCO2)N1CCCC1` (stereo not drawn) [MDPHP, 3,4-methylenedioxy-α-pyrrolidinohexanophenone] the same measures were 0.05 µM, greater than 20 µM, greater than 15 µM and greater than 13 µM.
Compound `CC(C(=O)c1ccc2c(c1)OCO2)N1CCCC1` (stereo not drawn) [MDPPP, 3,4-methylenedioxy-α-pyrrolidinopropiophenone] showed an IC50 in test [1] of 0.54 µM. In addition, in test [2], the EC50 was greater than 20 µM. Moreover, the Ki in test [3] was greater than 15 µM; in test [4] it was 8 ± 1.2 µM.
For `CCCC(C(=O)c1ccc2c(c1)OCO2)N1CCCC1` (stereo not drawn) [MDPV, 3,4-methylenedioxypyrovalerone] the same measures were 0.03 µM, greater than 20 µM, greater than 15 µM and greater than 13 µM.
In test [1], `COc1ccc(C(=O)C(C)N2CCCC2)cc1` (stereo not drawn) [MOPPP, 4-methoxy-α-pyrrolidinopropiophenone] showed an IC50 of 4.6 µM. In addition, the “DAT/SERT Ratio (95% CI)” value in test [1] ((1/DAT IC50):(1/SERT IC50)) is recorded as 20 (4.0–40). The “fold lower inhibition potency at the DAT” value in test [1] (compared to α-PPP) came to 8 fold. In addition, the EC50 in test [2] was greater than 20 µM. In addition, the Ki in test [3] was greater than 15 µM; in test [4] it was greater than 13 µM.
For the compound `CCCCC(C(=O)c1ccc(C)cc1)N1CCCC1` (stereo not drawn) [MPHP, 4-methyl-α-pyrrolidinohexanophenone], the IC50 in test [1] is 0.06 µM. The EC50 in test [2] is greater than 20 µM. Also, the Ki in test [3] is greater than 15 µM; in test [4], 7.3 ± 1.2 µM.
For `CCCCC(NCC)C(=O)c1ccccc1` (stereo not drawn) [NEH, N-ethylamine-hexanophenone] the same measures were 0.18 µM, greater than 20 µM, greater than 15 µM and greater than 13 µM.
Consider `CCCC(C(=O)c1ccc(C)cc1)N1CCCC1` (stereo not drawn) [Pyrovalerone, pyrovalerone], for which the figures for the “DAT/SERT Ratio (95% CI)” value in test [1] and in test [1] (listed as pyrovalerone) were 256 (125–450) and greater than 72, respectively. Besides, 0.05 µM corresponded to half-maximal inhibition in test [1] (IC50). Further, in test [2], the EC50 was greater than 20 µM. Further, the results for the Ki in test [3] and in test [4] were greater than 15 µM and greater than 13 µM, respectively.
`CCCCC(C(=O)c1ccccc1)N1CCCC1` (stereo not drawn) [α-PHP, α-pyrrolidinohexanophenone] came in with an IC50 in test [1] of 0.06 µM. Besides, the “DAT/SERT Ratio (95% CI)” value in test [1] ((1/DAT IC50):(1/SERT IC50)) was greater than 1000. Besides, the “fold higher potency at the DAT” value in test [1] (compared to α-PPP) amounted to 9 fold. Further, the EC50 in test [2] was greater than 20 µM. For the same compound, the figures for the Ki in test [3] and in test [4] were greater than 15 µM and greater than 13 µM, respectively.
In test [1], `CC(C(=O)c1ccccc1)N1CCCC1` (stereo not drawn) [α-PPP, α-pyrrolidinopropiophenone] returned an IC50 of 0.56 µM. Besides, the “DAT/SERT Ratio (95% CI)” value in test [1] ((1/DAT IC50):(1/SERT IC50)) is greater than 1000. Also, the EC50 in test [2] was greater than 20 µM. Also, the Ki in test [3] is greater than 15 µM; in test [4] it was 1.1 ± 0.3 µM.
In the case of `CCCC(C(=O)c1ccccc1)N1CCCC1` (stereo not drawn) [α-PVP, α-pyrrolidinopentiophenone], the IC50 in test [1] is 0.03 µM. For the same compound, in test [1] ((1/DAT IC50):(1/SERT IC50)), the “DAT/SERT Ratio (95% CI)” value is greater than 1000. In addition, the “fold higher potency at the DAT” value in test [1] (compared to α-PPP) worked out at 17 fold. In addition, the EC50 in test [2] was greater than 20 µM. For the same compound, the figures for the Ki in test [3] and in test [4] were greater than 15 µM and greater than 13 µM, respectively.
